In article PMC11435058, “Synthesis of New Thiazole-Privileged Chalcones as Tubulin Polymerization Inhibitors with Potential Anticancer Activities” (Pharmaceuticals, 2024):

Columns and labels:
TK-10 = assay: NCI-60 anticancer screen (SRB; single dose and five doses); conditions: Homo sapiens, TK-10, 48 h, read-out: Growth Percentage
KM12 = assay: as above; conditions: Homo sapiens, KM12, 48 h, read-out: Growth Percentage
SN12C = assay: as above; conditions: Homo sapiens, 48 h, read-out: Growth Percentage
CCRF-CEM = assay: NCI-60 anticancer screen (SRB; single dose 10 μM and five doses); conditions: Homo sapiens, 48 h, read-out: Growth Percentage
HCT-15 = assay: NCI-60 anticancer screen (SRB; single dose and five doses); conditions: Homo sapiens, HCT-15, 48 h, read-out: Growth Percentage
PC-3 = assay: as above; conditions: Homo sapiens, PC-3, 48 h, read-out: Growth Percentage
A498 = assay: as above; conditions: Homo sapiens, A498, 48 h, read-out: Growth Percentage, A498; dose of 10 μM
HT29 = assay: as above; conditions: Homo sapiens, HT-29, 48 h, read-out: Growth Percentage
SK-MEL-28 = assay: as above; conditions: Homo sapiens, SK-MEL-28, 48 h, read-out: Growth Percentage
NCI/ADR-RES = assay: as above; conditions: Homo sapiens, 48 h, read-out: Growth Percentage
SNB-75 = assay: as above; conditions: Homo sapiens, SNB-75, 48 h, read-out: Growth Percentage
OVCAR-4 = assay: as above; conditions: Homo sapiens, OVCAR-4, 48 h, read-out: Growth Percentage
SR = assay: as above; conditions: Homo sapiens, 48 h, read-out: Growth Percentage
EKVX = assay: as above; conditions: Homo sapiens, 48 h, read-out: Growth Percentage
A549/ATCC = assay: as above; conditions: Homo sapiens, A549, 48 h, read-out: Growth Percentage
DU-145 = assay: as above; conditions: Homo sapiens, DU-145, 48 h, read-out: Growth Percentage
HOP-92 = assay: as above; conditions: Homo sapiens, HOP-92, 48 h, read-out: Growth Percentage
HCC-2998 = assay: as above; conditions: Homo sapiens, HCC 2998, 48 h, read-out: Growth Percentage
K-562 = assay: as above; conditions: Homo sapiens, K562, 48 h, read-out: Growth Percentage
LOX IMVI = assay: as above; conditions: Homo sapiens, 48 h, read-out: Growth Percentage
NCI-H460 = assay: as above; conditions: Homo sapiens, NCI-H460, 48 h, read-out: Growth Percentage
NCI-H23 = assay: as above; conditions: Homo sapiens, NCI-H23, 48 h, read-out: Growth Percentage
786-0 = assay: as above; conditions: Homo sapiens, 786-0, 48 h, read-out: Growth Percentage
BT-549 = assay: as above; conditions: Homo sapiens, BT-549, 48 h, read-out: Growth Percentage
ACHN = assay: as above; conditions: Homo sapiens, 48 h, read-out: Growth Percentage
RPMI-8226 = assay: as above; conditions: Homo sapiens, RPMI-8226, 48 h, read-out: Growth Percentage
T-47D = assay: as above; conditions: Homo sapiens, T47D, 48 h, read-out: Growth Percentage
HOP-62 = assay: as above; conditions: Homo sapiens, HOP-62, 48 h, read-out: Growth Percentage
COLO 205 = assay: as above; conditions: Homo sapiens, COLO 205, 48 h, read-out: Growth Percentage

SMILES | activity at 10 µM (KM12) [%] | activity at 10 µM (SN12C) [%] | activity at 10 µM (CCRF-CEM) [%] | activity at 10 µM (HCT-15) [%] | activity at 10 µM (PC-3) [%] | activity at 10 µM (A498) [%] | activity at 10 µM (HT29) [%] | activity at 10 µM (SK-MEL-28) [%] | activity at 10 µM (NCI/ADR-RES) [%] | activity at 10 µM (OVCAR-4) [%] | activity at 10 µM (EKVX) [%] | activity at 10 µM (A549/ATCC) [%] | activity at 10 µM (DU-145) [%] | activity at 10 µM (HCC-2998) [%] | activity at 10 µM (K-562) [%] | activity at 10 µM (LOX IMVI) [%] | activity at 10 µM (NCI-H460) [%] | activity at 10 µM (NCI-H23) [%] | activity at 10 µM (786-0) [%] | activity at 10 µM (BT-549) [%] | other results
Cc1[nH]c(=S)sc1C(=O)/C=C/c1ccccc1 [2a, (E)-1-(4-Methyl-2-Thioxo-2,3-Dihydrothiazol-5-yl)-3-Phenylprop-2-En-1-One] | 29 | 66.1 | 37.2 | 35 | 77.6 | 106 | 99.7 | 85.2 | 64.8 | 76.4 | 73.1 | 82.3 | 27.9 | 91.3 | 51 | 31.1 | 56.7 | 77.5 | 68.1 | 68.8 | activity at 10 µM (TK-10): 80.3%; activity at 10 µM (SNB-75): 92.7%; activity at 10 µM (SR): 32.4%; activity at 10 µM (HOP-92): 89.6%; activity at 10 µM (ACHN): 71.8%; activity at 10 µM (RPMI-8226): 14.1%
COc1ccc(/C=C/C(=O)c2sc(=S)[nH]c2C)c(OC)c1 [2n, (E)-3-(2,4-Dimethoxyphenyl)-1-(4-Methyl-2-Thioxo-2,3-Dihydrothiazol-5-yl)Prop-2-En-1-One] | 73.4 | 81 | 53.7 | 45.8 | 75.7 | 101 | 115 | 92.8 | 48 | 52 | 56.2 | 90 | 86.9 | 80.7 | 48.9 | 57.8 | 89.8 | 72.9 | 85.9 | 59.8 | activity at 10 µM (T-47D): 30.9%; activity at 10 µM (TK-10): 94.1%; activity at 10 µM (HOP-62): 88.8%; activity at 10 µM (HOP-92): 103%; activity at 10 µM (COLO 205): 123%; activity at 10 µM (ACHN): 77%; activity at 10 µM (RPMI-8226): 35.6%
COc1ccc(/C=C/C(=O)c2sc(=S)[nH]c2C)cc1 [2l, (E)-3-(4-Methoxyphenyl)-1-(4-Methyl-2-Thioxo-2,3-Dihydrothiazol-5-yl)Prop-2-En-1-One] | 42.2 | 74.9 | 59 | 50.8 | 82.2 | 120 | 96.8 | 102 | 76.4 | 72.3 | 84.8 | 82.9 | 58.5 | 101 | 56.6 | 44.2 | 85.6 | 81.8 | 78.1 | 75 | activity at 10 µM (TK-10): 80.9%; activity at 10 µM (SNB-75): 98%; activity at 10 µM (SR): 43.7%; activity at 10 µM (HOP-92): 101%; activity at 10 µM (ACHN): 85.6%; activity at 10 µM (RPMI-8226): 19.6%
Cc1[nH]c(=S)sc1C(=O)/C=C/c1ccccc1Cl [2d, (E)-3-(2-Chlorophenyl)-1-(4-Methyl-2-Thioxo-2,3-Dihydrothiazol-5-yl)Prop-2-En-1-One] | 63.8 | 80 | 46.8 | 57.4 | 71.8 | 116 | 122 | 101 | 88.8 | 90.3 | 35.6 | 87.6 | 76 | 132 | 47.4 | 57.5 | 82.2 | 91.8 | 93.1 | 76.8 | activity at 10 µM (T-47D): 47.3%; activity at 10 µM (HOP-62): 91.7%; activity at 10 µM (SR): 14.1%; activity at 10 µM (COLO 205): 118%; activity at 10 µM (ACHN): 93.4%; activity at 10 µM (RPMI-8226): 28.6%
Cc1[nH]c(=S)sc1C(=O)/C=C/c1cccc(F)c1 [2b, (E)-3-(3-Fluorophenyl)-1-(4-Methyl-2-Thioxo-2,3-Dihydrothiazol-5-yl)Prop-2-En-1-One] | 11.9 | 32.1 | 15.4 | 19.1 | 54.7 | 106 | 47.1 | 93.7 | 10.8 | 79.5 | 68.6 | 76.4 | 12.9 | 58.2 | 22.8 | 13.8 | 43.2 | 71.1 | 46.9 | 65.7 | activity at 10 µM (T-47D): 0.69%; activity at 10 µM (HOP-62): 34.8%; activity at 10 µM (SR): 6.82%; activity at 10 µM (COLO 205): 94.5%; activity at 10 µM (ACHN): 56%; activity at 10 µM (RPMI-8226): 15.2%
